# Oligonucleotides are written 5' to 3', each unit as a sugar letter and its base; * is a phosphorothioate linkage, no mark a phosphodiester; rarer units and linkages stand in square brackets, end groups in braces. Plain capitals give the bases only. e = 2'-O-(2-methoxyethyl) (MOE); [5mC] = 5-methylcytosine
# System: IKBKAP pre-mRNA (mt19-21 minigene)
# Assay: Exon 20 inclusion in HEK-293 cells harboring the mt19-21 IKBKAP minigene (RT-PCR)
# Type: cell-based, human
# Conditions: HEK-293 with mt19-21 minigene; for effect on exon 20 inclusion/skipping, in words: 0.007 nmol oligonucleotide; for % inclusion (exon 20): 0.007 nmol oligonucleotide by electroporation, RT-PCR two days later
# Method: Antisense oligonucleotides were designed targeting a human IKBKAP nucleic acid and were tested for their effects on IKBKAP pre-mRNA in vitro. Together, the overlapping antisense oligonucleotides spanned the entire 74-nucleotide region of the IKBKAP exon 20 sequence, as well as the 100-nucleotide intronic regions immediately upstream and downstream of exon 20. The antisense oligonucleotides are presented in Table 1, and were designed as uniform 2′-O-methoxyethyl ribose (MOE) oligonucleotides with phosphate backbones. Each oligonucleotide is 15 nucleosides in length. All cytosine residues throughout the oligonucleotide are 5-methylcytosines. ‘Start Site’ indicates the 5′-most nucleoside to which the oligonucleotide is targeted in the human gene sequence. “Stop site” indicates the 3′-most nucleoside to which the oligonucleotide is targeted in the human gene sequence. Each oligonucleotide listed in Table 1 is targeted to the human IKBKAP genomic sequence (the complement of GENBANK Accession No NT_008470.16 truncated from nucleotides 13290828 to Ser. No. 13/358,424, designated herein as SEQ ID NO: 1). ISIS 414161 has one mismatch with SEQ ID NO: 1.
# Cultured HEK-293 cells harboring the mt19-21 minigene vector construct at a density of 7×10^5 cells per well were transfected using electroporation (Gene Pulsar II apparatus, Bio-Rad) with 0.007 nmol antisense oligonucleotide, as previously described (Hua, Y., et al., 2007. PLoS Biol 5:e73). […] These oligonucleotides served as controls for non-specific effects of uniform MOE oligonucleotides with phosphate backbones. Cells harboring the wt19-21 minigene and the mt19-21 minigene alone were also cultured and were used as controls for exon 20 inclusion levels. Two days later, cDNA synthesized from total RNA extracted from HEK-293 cells was amplified using the forward primer pCDNAF and reverse primer sequence IKAP21R4 to assay the splicing pattern of expressed RNAs by RT-PCR. To calculate exon 20 inclusion levels, the PCR amplicons were labeled with α^32P-dCTP. The PCR products were then separated by native PAGE, followed by phosphorimage analysis on a FUJIFILM FLA-5100 instrument (Fuji Medical Systems USA Inc.). The band intensities were quantified using Multi Gauge software Version 2.3 (FUJIFILM), and values were normalized for the G+C content according to the DNA sequence.
# Treatment with antisense oligonucleotides targeting the 3′ and 5′ splice sites caused increased skipping of exon 20.
# Additional oligonucleotides were designed targeting the first 30-nucleotide stretch of ISS-40. These oligonucleotides were designed by choosing sequences shifted in one nucleotide increments upstream and downstream (i.e., a “microwalk”) of ISS-40, starting from the +6 position in exon 20. The antisense oligonucleotides are presented in Table 2 and FIG. 4D, and were designed as uniform 2′-O-methoxyethyl ribose (MOE) oligonucleotides with phosphate backbones. Each oligonucleotide is 20 nucleosides in length. All cytosine residues throughout the oligonucleotide are 5-methylcytosines. ‘Start Site’ indicates the 5′-most nucleoside to which the oligonucleotide is targeted in the human gene sequence. “Stop site” indicates the 3′-most nucleoside to which the oligonucleotide is targeted in the human gene sequence. Each oligonucleotide listed in Table 2 is targeted to intron 20 of the human IKBKAP genomic sequence (the complement of GENBANK Accession No NT_008470.16 truncated from nucleotides 13290828 to Ser. No. 13/358,424, designated herein as SEQ ID NO: 1). These oligonucleotides were tested in vitro.
# Cultured HEK-293 cells harboring the mt19-21 minigene vector construct at a density of 7×10^5 cells per well were transfected using electroporation (Gene Pulsar II apparatus, Bio-Rad) with 0.007 nmol antisense oligonucleotide, as previously described (Hua, Y., et al., 2007. PLoS Biol 5:e73). […]
Substance,"effect on exon 20 inclusion/skipping, in words",% inclusion (exon 20) (Table 1),% inclusion (exon 20) (Table 2 (microwalk experiment))
"ISIS 414167: uniform 2′-MOE 15-mer, phosphate backbone; CACACATAAATCACA, SEQ ID NO 46, intron 20 (e[5mC]eAe[5mC]eAe[5mC]eAeTeAeAeAeTe[5mC]eAe[5mC]eA; splice-switching)",significantly decreased the levels of the included RNA isoform,13%,–
"ISIS 414134: uniform 2′-MOE 15-mer, phosphate backbone; TACACCATTTTACCT, SEQ ID NO 13, intron 19 (eTeAe[5mC]eAe[5mC]e[5mC]eAeTeTeTeTeAe[5mC]e[5mC]eT; splice-switching)",–,25%,–
"ISIS 422000: uniform 2′-MOE 20-mer, phosphate backbone; GCTAACTAGTCGCAAACAGT, SEQ ID NO 69, intron 20 (eGe[5mC]eTeAeAe[5mC]eTeAeGeTe[5mC]eGe[5mC]eAeAeAe[5mC]eAeGeT; splice-switching)",–,–,63%
"ISIS 414136: uniform 2′-MOE 15-mer, phosphate backbone; ATAGCCAGGATACAC, SEQ ID NO 15, intron 19 (eAeTeAeGe[5mC]e[5mC]eAeGeGeAeTeAe[5mC]eAe[5mC]; splice-switching)",positive effect on exon 20 inclusion,45%,–
"ISIS 414131: uniform 2′-MOE 15-mer, phosphate backbone; AACTCTTCACAGAGA, SEQ ID NO 10, intron 19 (eAeAe[5mC]eTe[5mC]eTeTe[5mC]eAe[5mC]eAeGeAeGeA; splice-switching)",–,30%,–
"ISIS 414148: uniform 2′-MOE 15-mer, phosphate backbone; TCTAAGTTTCCCCTT, SEQ ID NO 27, exon 20 (eTe[5mC]eTeAeAeGeTeTeTe[5mC]e[5mC]e[5mC]e[5mC]eTeT; splice-switching)",–,7%,–
"ISIS 414143: uniform 2′-MOE 15-mer, phosphate backbone; GCAGTAACATTTTTA, SEQ ID NO 22, intron 19 (eGe[5mC]eAeGeTeAeAe[5mC]eAeTeTeTeTeTeA; splice-switching)",–,8%,–
"ISIS 414153: uniform 2′-MOE 15-mer, phosphate backbone; AACCAGGGCTCGATG, SEQ ID NO 32, exon 20 (antisense eAeAe[5mC]e[5mC]eAeGeGeGe[5mC]eTe[5mC]eGeAeTeG)",–,5%,–
"ISIS 414146: uniform 2′-MOE 15-mer, phosphate backbone; CTTAAATAAATTAAA, SEQ ID NO 25, intron 19 (e[5mC]eTeTeAeAeAeTeAeAeAeTeTeAeAeA; splice-switching)",–,26%,–
"ISIS 414174: uniform 2′-MOE 15-mer, phosphate backbone; AGTTCTCGAAATTGT, SEQ ID NO 53, intron 20 (eAeGeTeTe[5mC]eTe[5mC]eGeAeAeAeTeTeGeT; splice-switching)",–,29%,–
"ISIS 414165: uniform 2′-MOE 15-mer, phosphate backbone; TCACAAGCTAACTAG, SEQ ID NO 44, intron 20 (eTe[5mC]eAe[5mC]eAeAeGe[5mC]eTeAeAe[5mC]eTeAeG; splice-switching)",markedly increased inclusion of exon 20,66%,64%
"ISIS 414150: uniform 2′-MOE 15-mer, phosphate backbone; ATGAACAACTTCTAA, SEQ ID NO 29, exon 20 (eAeTeGeAeAe[5mC]eAeAe[5mC]eTeTe[5mC]eTeAeA; splice-switching)",–,5%,–
"ISIS 414135: uniform 2′-MOE 15-mer, phosphate backbone; CAGGATACACCATTT, SEQ ID NO 14, intron 19 (e[5mC]eAeGeGeAeTeAe[5mC]eAe[5mC]e[5mC]eAeTeTeT; splice-switching)",positive effect on exon 20 inclusion,46%,–
"ISIS 414141: uniform 2′-MOE 15-mer, phosphate backbone; TTTTAATTAAGTAGA, SEQ ID NO 20, intron 19 (eTeTeTeTeAeAeTeTeAeAeGeTeAeGeA; splice-switching)",–,24%,–
"ISIS 414130: uniform 2′-MOE 15-mer, phosphate backbone; TTCACAGAGAATTAC, SEQ ID NO 9, intron 19 (eTeTe[5mC]eAe[5mC]eAeGeAeGeAeAeTeTeAe[5mC]; splice-switching)",–,25%,–
"ISIS 414159: uniform 2′-MOE 15-mer, phosphate backbone; TTGTCCAACCACTTC, SEQ ID NO 38, exon 20 (eTeTeGeTe[5mC]e[5mC]eAeAe[5mC]e[5mC]eAe[5mC]eTeTe[5mC]; splice-switching)",–,2%,–
"ISIS 414156: uniform 2′-MOE 15-mer, phosphate backbone; CCGAATCTGAGCTAA, SEQ ID NO 35, exon 20 (e[5mC]e[5mC]eGeAeAeTe[5mC]eTeGeAeGe[5mC]eTeAeA; splice-switching)",–,5%,–
"ISIS 414162: uniform 2′-MOE 15-mer, phosphate backbone; TCGCAAACAGTACAA, SEQ ID NO 41, intron 20 (eTe[5mC]eGe[5mC]eAeAeAe[5mC]eAeGeTeAe[5mC]eAeA; splice-switching)",markedly increased inclusion of exon 20,79%,82%
"ISIS 414160: uniform 2′-MOE 15-mer, phosphate backbone; TACAATGGCGCTTAC, SEQ ID NO 39, intron 20 (eTeAe[5mC]eAeAeTeGeGe[5mC]eGe[5mC]eTeTeAe[5mC]; splice-switching)",–,14%,–
"ISIS 421991: uniform 2′-MOE 20-mer, phosphate backbone; TCGCAAACAGTACAATGGCG, SEQ ID NO 60, intron 20 (eTe[5mC]eGe[5mC]eAeAeAe[5mC]eAeGeTeAe[5mC]eAeAeTeGeGe[5mC]eG; splice-switching)",–,–,91%
"ISIS 414161: uniform 2′-MOE 15-mer, phosphate backbone; AACAGTACAATGGCG, SEQ ID NO 40, intron 20; one mismatch with SEQ ID NO 1 (eAeAe[5mC]eAeGeTeAe[5mC]eAeAeTeGeGe[5mC]eG)",markedly increased inclusion of exon 20,88%,79%
"ISIS 414169: uniform 2′-MOE 15-mer, phosphate backbone; TTATTGTCTTCACAC, SEQ ID NO 48, intron 20 (eTeTeAeTeTeGeTe[5mC]eTeTe[5mC]eAe[5mC]eAe[5mC]; splice-switching)",–,21%,–
"ISIS 414158: uniform 2′-MOE 15-mer, phosphate backbone; CCAACCACTTCCGAA, SEQ ID NO 37, exon 20 (e[5mC]e[5mC]eAeAe[5mC]e[5mC]eAe[5mC]eTeTe[5mC]e[5mC]eGeAeA; splice-switching)",–,1%,–
"ISIS 421994: uniform 2′-MOE 20-mer, phosphate backbone; TAGTCGCAAACAGTACAATG, SEQ ID NO 63, intron 20 (eTeAeGeTe[5mC]eGe[5mC]eAeAeAe[5mC]eAeGeTeAe[5mC]eAeAeTeG; splice-switching)",–,–,91%
"ISIS 414171: uniform 2′-MOE 15-mer, phosphate backbone; AATAAAATACTTATT, SEQ ID NO 50, intron 20 (eAeAeTeAeAeAeAeTeAe[5mC]eTeTeAeTeT; splice-switching)",–,32%,–

# Reference: patent publication US11066668B2, “Compositions and methods for modulation of IKBKAP splicing” (Ionis Pharmaceuticals, Inc., priority 2012, dated 2021)
